Laboratory results: ChEMBL document CHEMBL1148852, “Glucosamine sulfate promotes osteoblastic differentiation of MG-63 cells via anti-inflammatory effect” (2007)
Calls of active or inactive are those of the source. The calls are words filed in the database; no cut-off is given here.

Tests used:
[1] = tested on: MG-63; experiment: Cytotoxicity against human MG63 cells up to 1000 ug/ml after 48 hrs by MTT assay; type: functional, cell-based
[2] = tested on: MG-63; experiment: Increase in alkaline phosphatase activity in human MG63 cells at 5 ug/mL after 24 hrs; type: functional, cell-based
[3] = tested on: MG-63; experiment: Increase in alkaline phosphatase activity in human MG63 cells at 1000 ug/mL after 24 hrs; type: functional, cell-based
[4] = tested on: MG-63; experiment: Effect on osteocalcin secretion in human MG63 cells after 4 days; type: functional, cell-based
[5] = tested on: MG-63; experiment: Increase of mineralization in human MG63 cells after 7 days; type: functional, cell-based
[6] = tested on: MG-63; experiment: Increase of collagen synthesis in human MG63 cells after 7 days; type: functional, cell-based
[7] = tested on: RAW; experiment: Inhibition of lipopolysaccharide stimulated TNFalpha synthesis in mouse RAW 264.7 cells; type: functional, cell-based
[8] = tested on: RAW; experiment: Reduction of lipopolysaccharide stimulated IL1-beta synthesis in mouse RAW 264.7 cells; type: functional, cell-based
[9] = tested on: RAW; experiment: Reduction of lipopolysaccharide stimulated PGE2 synthesis in mouse RAW 264.7 cells at 10 ug/mL; type: functional, cell-based
[10] = tested on: MG-63; experiment: Increase of collagen synthesis in human MG63 cells at 10 ug/mL relative to glucosamine; type: functional
[11] = tested on: MG-63; experiment: Increase in alkaline phosphatase activity in human MG63 cells after 24 hrs; type: functional, cell-based
[12] = tested on: MG-63; experiment: Effect on alkaline phosphatase activity in human MG63 cells at 100 ug/mL after 24 hrs; type: functional, cell-based

Structure (SMILES) | Activity [1] | Activity [2] | Activity [3] | Activity [4] | Activity [5] | Activity [6] | Activity [7] | Activity [8] | Activity [9] | Fold change [10] | Activity [11] | Activity [12]
N[C@@H]1[C@@H](O)[C@H](O)[C@@H](COS(=O)(=O)O)O[C@H]1O | Not toxic | Active | inactive | Dose-dependent effect | Active | Dose-dependent effect | Active | Active | Active | 3 | Dose-dependent effect | 
N[C@@H]1[C@@H](O)[C@H](O)[C@@H](CO)O[C@H]1O |  |  |  | Dose-dependent effect |  |  | Active |  |  |  |  | inactive
